In this data set the test system is CCRIS mutagenicity, Ames/micronucleus/aberration tests. Nature of the data set: CCRIS mutagenicity studies.

The source made the active and inactive calls. No rule for the calls is given here.

In the case of `CC(=O)N(O)c1ccc2c(c1)Cc1ccccc1-2`, the mutagenic call runs as follows: (Test System: AMES SALMONELLA TYPHIMURIUM, Strain/Indicator: TA98, Metabolic Activation: GUINEA PIG, LIVER, HEPATOCYTES) “active; positive”; (Test System: AMES SALMONELLA TYPHIMURIUM, Strain/Indicator: TA98, Metabolic Activation: GUINEA PIG, LIVER, S-9, Method: STANDARD PLATE) “active; positive”; (Test System: AMES SALMONELLA TYPHIMURIUM, Strain/Indicator: TA98, Metabolic Activation: HAMSTER, LIVER, HEPATOCYTES) “active; positive”; (Test System: AMES SALMONELLA TYPHIMURIUM, Strain/Indicator: TA98, Metabolic Activation: HAMSTER, LIVER, S-9, Method: STANDARD PLATE) “active; positive”; (Test System: AMES SALMONELLA TYPHIMURIUM, Strain/Indicator: TA98, Metabolic Activation: HUMAN, FETAL LIVER, S-9) “active; positive”; (Test System: AMES SALMONELLA TYPHIMURIUM, Strain/Indicator: TA98, Metabolic Activation: MOUSE, LIVER, HEPATOCYTES) “active; positive”. In addition, the mutagenic call is, setting by setting: (Test System: AMES SALMONELLA TYPHIMURIUM, Strain/Indicator: TA98, Metabolic Activation: MOUSE, LIVER, S-9, Method: STANDARD PLATE) “active; positive”; (Test System: AMES SALMONELLA TYPHIMURIUM, Strain/Indicator: TA98, Metabolic Activation: NONE, Method: STANDARD PLATE) “active; positive”; (Test System: AMES SALMONELLA TYPHIMURIUM, Strain/Indicator: TA98, Metabolic Activation: RABBIT, LIVER, MICROSOMAL FRACTION, Method: STANDARD PLATE) “active; positive”; (Test System: AMES SALMONELLA TYPHIMURIUM, Strain/Indicator: TA98, Metabolic Activation: RABBIT, LUNG, MICROSOMAL FRACTION, Method: STANDARD PLATE) “active; positive”; (Test System: AMES SALMONELLA TYPHIMURIUM, Strain/Indicator: TA98, Metabolic Activation: RAT, LIVER, HEPATOCYTES) “active; positive”; (Test System: AMES SALMONELLA TYPHIMURIUM, Strain/Indicator: TA98, Metabolic Activation: RAT, LIVER, S-9, AROCLOR 1254, Method: STANDARD PLATE) “active; positive”. Moreover, the mutagenic call by setting is: (Test System: AMES SALMONELLA TYPHIMURIUM, Strain/Indicator: TA98, Metabolic Activation: RAT, LIVER, S-9, Method: STANDARD PLATE) “active; positive”; (Test System: AMES SALMONELLA TYPHIMURIUM, Strain/Indicator: TA98, Metabolic Activation: V-79 CELL HOMOGENATE, Method: PREINCUBATION) “active; positive”; (Test System: AMES SALMONELLA TYPHIMURIUM, Strain/Indicator: TA1538, Metabolic Activation: NONE, Method: STANDARD PLATE) “active; positive”; (Test System: AMES SALMONELLA TYPHIMURIUM, Strain/Indicator: TA1538, Metabolic Activation: RAT, LIVER, S-9, AROCLOR 1254, Method: STANDARD PLATE) “active; positive”; (Test System: AMES SALMONELLA TYPHIMURIUM, Strain/Indicator: TA1538, Metabolic Activation: RAT, LIVER, S-9, KC500 OR PHENOBARBITAL, Method: LIQUID SUSPENSION) “active; positive”; (Test System: AMES SALMONELLA TYPHIMURIUM, Strain/Indicator: YG1012, Metabolic Activation: NONE, Method: PREINCUBATION) “active; positive”. For the same compound, the mutagenic call by setting is: (Test System: AMES SALMONELLA TYPHIMURIUM, Strain/Indicator: YG1019, Metabolic Activation: NONE, Method: PREINCUBATION) “active; positive”; (Test System: AMES SALMONELLA TYPHIMURIUM, Strain/Indicator: YG1020, Metabolic Activation: NONE, Method: PREINCUBATION) “active; positive”; (Test System: AMES SALMONELLA TYPHIMURIUM, Strain/Indicator: YG1024, Metabolic Activation: NONE, Method: PREINCUBATION) “active; positive”; (Test System: CHINESE HAMSTER V-79, Strain/Indicator: V-79/6-THIOGUANINE, Metabolic Activation: NONE) “active; positive”; (Test System: CHINESE HAMSTER V-79, Strain/Indicator: V-79/8-AZAGUANINE, Metabolic Activation: NONE, Method: STANDARD PLATE) “active; positive”; (Test System: E. COLI, Strain/Indicator: WP2 UVRA, Metabolic Activation: NONE, Method: STANDARD PLATE) “inactive; negative”. Further, the mutagenic call is “active; positive” (Test System: UDS GUINEA PIG HEPATOCYTES, Strain/Indicator: THY INCORP, Metabolic Activation: NONE, Method: LIQUID SCINTILLATION COUNTING); “active; positive” (Test System: UDS HAMSTER HEPATOCYTES, Strain/Indicator: THY INCORP, Metabolic Activation: NONE, Method: LIQUID SCINTILLATION COUNTING); “active; positive” (Test System: UDS HUMAN CELLS, Strain/Indicator: THY INCORP (NON-S-PHASE), Metabolic Activation: RAT, LIVER, S-9, PHENOBARBITAL, Method: LIQUID SCINTILLATION COUNTING); “active; positive” (Test System: UDS HUMAN FIBROBLASTS, Strain/Indicator: THY INCORP (NON-S-PHASE), Metabolic Activation: NONE, Method: AUTORADIOGRAPHY); “active; positive” (Test System: UDS HUMAN FIBROBLASTS, Strain/Indicator: THY INCORP (NON-S-PHASE), Metabolic Activation: NONE, Method: LIQUID SCINTILLATION COUNTING); “active; positive” (Test System: UDS HUMAN LYMPHOCYTES, Strain/Indicator: THY INCORP (NON-S-PHASE), Metabolic Activation: NONE, Method: LIQUID SCINTILLATION COUNTING). Moreover, the mutagenic call runs as follows: (Test System: UDS MOUSE HEPATOCYTES, Strain/Indicator: THY INCORP, Metabolic Activation: NONE, Method: LIQUID SCINTILLATION COUNTING) “active; positive”; (Test System: UDS RAT HEPATOCYTES, Strain/Indicator: THY INCORP, Metabolic Activation: NONE, Method: LIQUID SCINTILLATION COUNTING) “active; positive”; (Test System: UDS RODENT HEPATOCYTES, Strain/Indicator: THY INCORP (NON-S-PHASE), Method: AUTORADIOGRAPHY) “active; positive”; (Test System: UDS RODENT HEPATOCYTES, Strain/Indicator: THY INCORP (NON-S-PHASE), Method: LIQUID SCINTILLATION COUNTING) “active; positive”.
In the case of `N[C@@H](CCC(=O)N[C@@H](CSC(=O)NCCCl)C(=O)NCC(=O)O)C(=O)O`, the mutagenic call (Test System: AMES SALMONELLA TYPHIMURIUM, Strain/Indicator: TA1535, Metabolic Activation: NONE, Method: STANDARD PLATE) was “active; positive”.
In the case of `NCCc1ccc(O)cc1`, the mutagenic call is, setting by setting: (Test System: MOUSE LYMPHOMA, Strain/Indicator: L5178Y (TK+/TK-), Metabolic Activation: NONE, Method: SUSPENSION/PLATE) “active; positive”; (Test System: MOUSE LYMPHOMA, Strain/Indicator: L5178Y (TK+/TK-), Metabolic Activation: RAT, LIVER, S-9, AROCLOR 1254, Method: SUSPENSION/PLATE) “active; positive”.
In the case of `C#CCOS(=O)(=O)c1ccc(C)cc1`, the mutagenic call (Test System: AMES SALMONELLA TYPHIMURIUM, Strain/Indicator: TA100, Metabolic Activation: NONE, Method: STANDARD PLATE) is “inactive; negative” and the mutagenic call (Test System: AMES SALMONELLA TYPHIMURIUM, Strain/Indicator: TA100, Metabolic Activation: RAT, LIVER, S-9, Method: STANDARD PLATE) was “active; positive”.

Source of the values: PubChem BioAssay AID1259407 (Chemical Carcinogenesis Research Information System (CCRIS), 2018).
